Here are results for two molecules from patent US5075289A, “9-R-azacyclic erythromycin antibiotics” (priority 1988, dated 1991).

In assay [1] the test system is Staphylococcus aureus (NCTC 10649). As to the kind of experiment: In-vivo mouse protection assay (acute mouse protection test). Also on record: species or system Swiss albino mice. The note with it: 168 h. Here is the method: (§1) The acute mouse protection test is conducted on ten mice with each of three levels of drug. Mouse mortality is used to calculate an ED50 value, i.e., the dose of drug required to protect 50% of the test animals against death due to the inoculum challenge.
(§2) The acute mouse protection test is conducted on female, Swiss albino mice, 18-20 grams in weight. […] To check the potency of the inoculum, a titration of the indicated test organism is carried out in control animals. The treatment group of animals is dosed with the test compound at 1 and 5 hours post infection and observed for 7 days. The ED50 values are calculated using the mortality data collected.

Assay [2] has as its system Streptococcus pyogenes C-203. The description is as above. Also on record: species or system Swiss albino mice. The note with it: 168 h. Here is the method:
as §1, §2

Assay [3] has as its system Streptococcus pneumoniae (6303). Described as above. The arrangement: species or system Swiss albino mice. The following applies: 168 h. As for the experimental part: as §1, §2
Assay [4] relates to Haemophilus influenzae DILL AMP R. Nature of the assay: In vitro antibacterial activity, agar dilution MIC. The note with it: H. influenzae DILL AMP R. It counts as cell-based. Here is the method:
(§3) The antimicrobial spectra of a number of compounds of the invention were tested by the following method:
(§4) Twelve petri dishes containing successive aqueous dilutions of the test compound mixed with 10 ml of sterilized Brain Heart Infusion agar (Difco 0418-01-5) are prepared. Each plate is inoculated with 1:100 (or 1:10 for slow growing strains, primarily Micrococcus and Streptococcus) dilutions of up to 32 different microorganisms, using a Steers replicator block The inoculated plates are incubated at 35°-37° C. for 20-24 hours. In addition, a control plate, using BHI agar containing no test compound, is prepared and incubated at the beginning and end of each test.
(§5) An additional plate containing a compound having known susceptibility patterns for the organisms being tested and belonging to the same antibiotic class as the test compound is also prepared and incubated as a further control, as well as to provide test-to-test comparability. Erythromycin A was used for this purpose.
(§6) After incubation, each disk is read. The MIC is defined as the lowest concentration of drug yielding no growth, a slight haze, or sparsely isolated colonies on the inoculum spot as compared to the growth control.

The subject of assay [5] is Haemophilus influenzae 519A. As to the kind of experiment: In vitro antibacterial activity, agar dilution MIC. The following applies: H. influenzae 519A. It counts as cell-based. As for the experimental part:
as §3, §4, §5, §6

The test system of assay [6] is Haemophilus influenzae 751. Nature of the assay: In vitro antibacterial activity, agar dilution MIC. It counts as cell-based. The note with it: H. influenzae 751. As for the experimental part: as §3, §4, §5, §6
The subject of assay [7] is Haemophilus influenzae 632A. Nature of the assay: In vitro antibacterial activity, agar dilution MIC. It counts as cell-based. The note with it: H. influenzae 632A. As for the experimental part: as §3, §4, §5, §6
A general note: In agar dilution the substance is mixed into plates at graded concentrations.

The test system of assay [8] is Haemophilus influenzae 747C. Nature of the assay: In vitro antibacterial activity, agar dilution MIC. It counts as cell-based. The following applies: H. influenzae 747C. As for the experimental part: as §3, §4, §5, §6
Assay [9] concerns Haemophilus influenzae ATCC 10211. As to the kind of experiment: In vitro antibacterial activity, agar dilution MIC. It counts as cell-based. The following applies: ATCC10211, H. influenzae ATCC 10211. As for the experimental part: as §3, §4, §5, §6
Assay [10] relates to Haemophilus influenzae ATCC 19418. As to the kind of experiment: In vitro antibacterial activity, agar dilution MIC. It counts as cell-based. The note with it: ATCC19418, H. influenzae ATCC 19418. Here is the method:
as §3, §4, §5, §6

Assay [11] relates to Haemophilus influenzae 503B. Nature of the assay: In vitro antibacterial activity, agar dilution MIC. It counts as cell-based. The note with it: H. influenzae 503B. As for the experimental part:
as §3, §4, §5, §6

Assay [12] relates to Haemophilus influenzae SPK AMP R. Nature of the assay: In vitro antibacterial activity, agar dilution MIC. It counts as cell-based. The following applies: H. influenzae SPK AMP R. Here is the method: as §3, §4, §5, §6
In assay [13] the test system is Haemophilus influenzae 1177. Nature of the assay: In vitro antibacterial activity, agar dilution MIC. It counts as cell-based. The note with it: H. influenzae 1177. Here is the method:
as §3, §4, §5, §6

The test system of assay [14] is Haemophilus influenzae 1435. Nature of the assay: In vitro antibacterial activity, agar dilution MIC. It counts as cell-based. The following applies: H. influenzae 1435. As for the experimental part:
as §3, §4, §5, §6

Assay [15] has as its system Haemophilus influenzae ATCC 9795. As to the kind of experiment: In vitro antibacterial activity, agar dilution MIC. It counts as cell-based. The following applies: ATCC9795, H. influenzae ATCC 9795. Here is the method: as §3, §4, §5, §6
In assay [16] the test system is Haemophilus influenzae 504. Nature of the assay: In vitro antibacterial activity, agar dilution MIC. It counts as cell-based. The note with it: H. influenzae 504. Here is the method: as §3, §4, §5, §6
Assay [17] relates to Haemophilus influenzae SOL AMP R. Nature of the assay: In vitro antibacterial activity, agar dilution MIC. It counts as cell-based. The note with it: H. influenzae SOL AMP R. Here is the method: as §3, §4, §5, §6
The test system of assay [18] is Haemophilus influenzae 588A. Nature of the assay: In vitro antibacterial activity, agar dilution MIC. It counts as cell-based. The note with it: H. influenzae 588A. Here is the method:
as §3, §4, §5, §6

Assay [19] has as its system Haemophilus influenzae 667A. Nature of the assay: In vitro antibacterial activity, agar dilution MIC. It counts as cell-based. The following applies: H. influenzae 667A. As for the experimental part:
as §3, §4, §5, §6

Assay [20] concerns Haemophilus influenzae 566A. As to the kind of experiment: In vitro antibacterial activity, agar dilution MIC. It counts as cell-based. The following applies: H. influenzae 566A. As for the experimental part: as §3, §4, §5, §6

In brackets after ≈: the same amount, converted by molar mass.

Turning to `CC[C@H]1OC(=O)[C@H](C)[C@@H](O[C@H]2C[C@@](C)(OC)[C@@H](O)[C@H](C)O2)[C@H](C)[C@@H](O[C@@H]2O[C@H](C)C[C@H](N(C)C)[C@H]2O)[C@](C)(O)C[C@@H](C)C(=O)[C@H](C)[C@@H](O)[C@]1(C)O` [erythromycin], the ED50 (commonly the dose at which the effect has come halfway, by size or by number of responders) in assay [1] (NCTC10649, po) came to 98 mg/kg; in assay [1] (NCTC10649, sc) it was 20 mg/kg; in assay [2] (C203, po), 12 mg/kg; in [2] (C203, sc) it was 1.8 mg/kg; in assay [3] (po), 21.5 mg/kg; in assay [3] (sc), 0.9 mg/kg.

As to `CC[C@H]1OC(=O)[C@H](C)[C@@H](O[C@H]2C[C@@](C)(OC)[C@@H](O)[C@H](C)O2)[C@H](C)[C@@H](O[C@@H]2O[C@H](C)C[C@H](N(C)C)[C@H]2O)[C@](C)(O)C[C@@H](C)[C@@H](N2CCC(OC)(OC)CC2)[C@H](C)[C@@H](O)[C@]1(C)O` [Example 27], the MIC was 0.5 µg/mL (≈ 0.579 µM) in assay [4]; 0.25 µg/mL (≈ 0.29 µM) in [5]; 2 µg/mL (≈ 2.32 µM) in assay [6]; 1 µg/mL (≈ 1.16 µM) in assay [7]; 1 µg/mL (≈ 1.16 µM) in assay [8]; 0.5 µg/mL (≈ 0.579 µM) in assay [9]. The MIC stood at 1 µg/mL (≈ 1.16 µM) in assay [10]; 1 µg/mL (≈ 1.16 µM) in [11]; 1 µg/mL (≈ 1.16 µM) in [12]; 0.06 µg/mL (≈ 0.0695 µM) in [13]; 0.25 µg/mL (≈ 0.29 µM) in [14]; 1 µg/mL (≈ 1.16 µM) in assay [15]. The MIC in assay [16], in assay [17], in [18], in [19] and in [20] was 1 µg/mL (≈ 1.16 µM) throughout.
